Consider one molecule from patent publication US20110117164A1, “Use of Additive Sites to Control Nitric Oxide Release from Nitric Oxide Donors Contained within Polymers” (priority 2004, published 2011).

The nature of data set [1]: Organic phase pH of polymer films monitored with chromoionophore II (UV-Vis). The data set is classed as physicochemical. The note with it: PVC films with 5 wt. % donor, PBS buffer; protonated 650 nm, deprotonated 514 nm. The text has this: To determine, experimentally, if the pH within the film was changing with time, a lipophilic pH chromoionophore was incorporated into PVC films containing 5 wt. % of 2d, both in the presence and absence of KTpClPB. The intensity of the UV-Vis absorbances corresponding to the protonated (λmax=650 nm) and deprontonated (λmax=514 nm) peaks of the chromoionophore were monitored with time spectrophotometrically. […] This further supports the notion that as NO is being released from within the polymer phase, the unreacted diazeniumdiolate groups may require a buffering system to prevent the film from becoming too basic, which in turn may slow further diazeniumdiolate decomposition.
General Procedure for Deprotection to Form Diamine Copolymer (c). 35 mg of the copolymer (b) was dissolved in 2 mL of dichloromethane and then 200 μL of TFA (trifluoroacetic acid) was added dropwise. The solution was stirred at room temperature for about 3 hours. […] The data was recorded as a concentration of NO in PPB or PPM. The total amount of NO released (in moles) was determined by multiplying a constant (specific to each instrument, units of mol ppm^−1 s^−1) by the time interval that data was collected and the concentration. pH Experiments. […]

Data set [2] in a line: Storage stability of polymer films containing diazeniumdiolate (NO release after storage). The note with it: 4 weeks. The data set is classed as physicochemical. As for the experimental part:
To determine if polymer films containing such diazeniumdiolates would also remain stable, NO release measurements were conducted for films containing 29 wt. % PVC, 60 wt. % plasticizer (DOS), 4.4 wt. % compound 2d and 6.6 wt. % KTpClPB under two storage conditions: a) room temperature under nitrogen and b) ambient conditions. Initial NO release measurements were performed for freshly prepared films. Additional NO release measurements were conducted for both storage conditions after 1, 2 and 4 weeks. […] The loss of NO may be due in part to the slow decomposition of the diazeniumdiolate within the polymer matrix owing to permeation of water vapor into the polymer film. Although this loss represents a significant percentage of the total NO releasing capability of the film, such films still yield NO surface fluxes higher than that of stimulated endothelial cells (i.e., 4·10^−10 mol·cm^−2·min^−1). However, films stored under a dry nitrogen environment at room temperature maintained 99% of their NO release after a 4-week period.

In the case of `CCCCNCCCCCCN(CCCC)/[N+]([O-])=N/O` [Compound 2d, (Z)-1-{N-Butyl-N-[6-(N-butylammoniohexyl)amino]}-diazen-1-ium-1,2-diolate], in data set [1], the “change of chromoionophore peaks with exposure time, films containing KTpClPB” value is reported as “the intensity of the protonated peak remains constant”; the “change of chromoionophore peaks with exposure time, films without KTpClPB” value was “an increase in the absorbance of the deprotonated peak and a decrease in the protonated peak”. Also, the “theoretical total NO release achieved after storage” value in data set [2] (film 29 wt. % PVC, 60 wt. % DOS, 4.4 wt. % donor, 6.6 wt. % KTpClPB, ambient conditions) was found to be 62%. Further, in data set [2] (films stored under ambient conditions), the “NO surface flux of films after ambient storage (vs stimulated endothelial cells)” value is > 4·10^−10 mol·cm^−2·min^−1. Also, the “NO release maintained after storage” value in data set [2] (same film, dry nitrogen environment at room temperature) came out at 99%.
